Measurements: US6825172B2, “3-descladinosyl-6-O-carbamoyl and 6-O-carbonoyl macrolide antibacterial agents” (Janssen Pharmaceutica, NV, priority 2002, dated 2004)
In brackets after ≈: the same amount, converted by molar mass. Where two headings read alike, the source gives them in different places.

Experiments:
Experiment in all cases: MIC, microdilution broth method (NCCLS)
Format in all cases: cell-based
E. coli OC2605 = settings: Escherichia coli
Method: (§1) Minimal inhibitory concentration (MIC) has been an indicator of in vitro antibacterial activity widely used in the art. The in vitro antimicrobial activity of the compounds was determined by the microdilution broth method following the test method from the National Committee for Clinical Laboratory Standards (NCCLS). This method is described in the NCCLS Document M7-A4, Vol.17, No.2, “Methods for Dilution Antimicrobial Susceptibility Test for Bacteria that Grow Aerobically—Fourth Edition”, which is incorporated herein by reference.
(§2) In this method two-fold serial dilutions of drug in cation adjusted Mueller-Hinton broth are added to wells in microdilution trays. The test organisms are prepared by adjusting the turbidity of actively growing broth cultures so that the final concentration of test organism after it is added to the wells is approximately 5×10^4 CFU/well.
(§3) Following inoculation of the microdilution trays, the trays are incubated at 35 °C for 16-20 hours and then read. […] The amount of growth in the wells containing the test compound is compared with the amount of growth in the growth-control wells (no test compound) used in each tray. As set forth in Table 1, compounds of the present invention were tested against a variety of Gram positive and Gram negative pathogenic bacteria resulting in a range of activities depending on the organism tested.

H. influenzae ATCC49247 = settings: Haemophilus influenzae, read-out: MIC Values, E: H. influenzae ATCC49247
Method: as §1, §2, §3

S. aureus ATCC29213 = settings: Staphylococcus aureus, read-out: MIC Values, B: S. aureus ATCC29213
Method: as §1, §2, §3

S. pneumoniae ATCC49619 = settings: Streptococcus pneumoniae, read-out: MIC Values, D: S. pneumoniae ATCC49619
Method: as §1, §2, §3

E. faecalis ATCC29212 = settings: Enterococcus faecalis, read-out: MIC Values, C: E. faecalis ATCC29212
Method: as §1, §2, §3

[1] = Table 1, 6-Carbamoyl-3-Acyl Macrolide Derivatives, read-out: MIC Values, A: E. coli OC2605
[2] = Table 1, 6-Carbamoyl-3-Acyl Macrolide Derivatives
[3] = Table 2, 3,6-Dicarbamoyl Macrolide Derivatives
[4] = Table 3, 6-Carbonate Macrolide Derivatives

MIC (E. coli OC2605; [1]) [µg/mL] | MIC (H. influenzae ATCC49247; [2]) [µg/mL] | MIC (S. aureus ATCC29213; [2]) [µg/mL] | MIC (S. pneumoniae ATCC49619; [2]) [µg/mL] | MIC (E. faecalis ATCC29212; [2]) [µg/mL] | MIC (E. coli OC2605; Table 2, 3,6-Dicarbamoyl Macrolide Derivatives, read-out: MIC Values, A: E. coil OC2605) [µg/mL] | MIC (H. influenzae ATCC49247; [3]) [µg/mL] | MIC (S. aureus ATCC29213; [3]) [µg/mL] | MIC (S. pneumoniae ATCC49619; [3]) [µg/mL] | MIC (E. faecalis ATCC29212; [3]) [µg/mL] | MIC (S. aureus ATCC29213; [4]) [µg/mL] | MIC (S. pneumoniae ATCC49619; [4]) [µg/mL] | MIC (E. faecalis ATCC29212; [4]) [µg/mL] | Compound
> 16 | 2 (≈ 2.06 µM) | 0.5 (≈ 0.515 µM) | 0.06 (≈ 0.0618 µM) | 0.25 (≈ 0.257 µM) | – | – | – | – | – | – | – | – | CC[C@H]1OC(=O)[C@H](C)[C@@H](OC(=O)CCc2cccnc2)[C@H](C)[C@@H](O[C@@H]2O[C@H](C)C[C@H](N(C)C)[C@H]2O)[C@](C)(OC(=O)NC/C=C/c2ccc(-c3ncccn3)cc2)C[C@@H](C)C(=O)[C@H](C)[C@H]2NC(=O)O[C@@]21C [Compound 3]
> 16 | 2 (≈ 2.33 µM) | 0.5 (≈ 0.583 µM) | < 0.015 | 0.25 (≈ 0.292 µM) | – | – | – | – | – | – | – | – | CC[C@H]1OC(=O)[C@H](C)[C@@H](OC(=O)C(C)C)[C@H](C)[C@@H](O[C@@H]2O[C@H](C)C[C@H](N(C)C)[C@H]2O)[C@](C)(OC(=O)NC/C=C/C=C/c2cccnc2)C[C@@H](C)C(=O)[C@H](C)[C@H]2NC(=O)O[C@@]21C [Compound 24]
16 (≈ 16.9 µM) | 4 (≈ 4.22 µM) | 1 (≈ 1.05 µM) | 0.06 (≈ 0.0633 µM) | 0.25 (≈ 0.264 µM) | – | – | – | – | – | – | – | – | CC[C@H]1OC(=O)[C@H](C)[C@@H](OC(=O)Cc2cccnc2)[C@H](C)[C@@H](O[C@@H]2O[C@H](C)C[C@H](N(C)C)[C@H]2O)[C@](C)(OC(=O)NC/C=C/c2ccc(C(F)(F)F)nc2)C[C@@H](C)C(=O)[C@H](C)[C@H]2NC(=O)O[C@@]21C [Compound 36]
– | – | – | – | – | – | – | – | – | – | 0.5 (≈ 0.523 µM) | 0.06 (≈ 0.0628 µM) | 0.25 (≈ 0.261 µM) | CC[C@H]1OC(=O)[C@H](C)[C@@H](OC(=O)Cc2cccnc2)[C@H](C)[C@@H](O[C@@H]2O[C@H](C)C[C@H](N(C)C)[C@H]2O)[C@](C)(OC(=O)OCC#Cc2ccc(-c3ncccn3)cc2)C[C@@H](C)C(=O)[C@H](C)[C@H]2NC(=O)O[C@@]21C [Compound 81]
– | – | – | – | – | – | – | 1 (≈ 1.08 µM) | 0.06 (≈ 0.0649 µM) | 0.5 (≈ 0.54 µM) | – | – | – | CC[C@H]1OC(=O)[C@H](C)[C@@H](OC(=O)N(C)OC)[C@H](C)[C@@H](O[C@@H]2O[C@H](C)C[C@H](N(C)C)[C@H]2O)[C@](C)(OC(=O)NC/C=C/c2ccc(-c3ncccn3)cc2)C[C@@H](C)C(=O)[C@H](C)[C@H]2NC(=O)O[C@@]21C [Compound 68]

The remaining lines, values behind:

Compound | MIC (E. coli OC2605; [1]) [µg/mL] | MIC (H. influenzae ATCC49247; [2]) [µg/mL] | MIC (S. aureus ATCC29213; [2]) [µg/mL] | MIC (S. pneumoniae ATCC49619; [2]) [µg/mL] | MIC (E. faecalis ATCC29212; [2]) [µg/mL] | MIC (E. coli OC2605; Table 2, 3,6-Dicarbamoyl Macrolide Derivatives, read-out: MIC Values, A: E. coil OC2605) [µg/mL] | MIC (H. influenzae ATCC49247; [3]) [µg/mL] | MIC (S. aureus ATCC29213; [3]) [µg/mL] | MIC (S. pneumoniae ATCC49619; [3]) [µg/mL] | MIC (E. faecalis ATCC29212; [3]) [µg/mL] | MIC (S. aureus ATCC29213; [4]) [µg/mL] | MIC (S. pneumoniae ATCC49619; [4]) [µg/mL] | MIC (E. faecalis ATCC29212; [4]) [µg/mL]
CC[C@H]1OC(=O)[C@H](C)[C@@H](OC(=O)COCc2ccccc2)[C@H](C)[C@@H](O[C@@H]2O[C@H](C)C[C@H](N(C)C)[C@H]2O)[C@](C)(OC(=O)NC/C=C/c2ccc(-c3ncccn3)cc2)C[C@@H](C)C(=O)[C@H](C)[C@H]2NC(=O)O[C@@]21C [Compound 16] | > 16 | 8 (≈ 8.11 µM) | 1 (≈ 1.01 µM) | 0.06 (≈ 0.0608 µM) | 0.5 (≈ 0.507 µM) | – | – | – | – | – | – | – | –
CC[C@H]1OC(=O)[C@H](C)[C@@H](OC(=O)N(CC)CC)[C@H](C)[C@@H](O[C@@H]2O[C@H](C)C[C@H](N(C)C)[C@H]2O)[C@](C)(OC(=O)NC/C=C/c2cnc3ccccc3c2)C[C@@H](C)C(=O)[C@H](C)[C@H]2NC(=O)O[C@@]21C [Compound 59] | – | – | – | – | – | 16 (≈ 17.6 µM) | 4 (≈ 4.4 µM) | 0.5 (≈ 0.549 µM) | 0.06 (≈ 0.0659 µM) | 0.25 (≈ 0.275 µM) | – | – | –
CC[C@H]1OC(=O)[C@H](C)[C@@H](OC(=O)C(C)C)[C@H](C)[C@@H](O[C@@H]2O[C@H](C)C[C@H](N(C)C)[C@H]2O)[C@](C)(OC(=O)NC/C=C/c2cccnc2)C[C@@H](C)C(=O)[C@H](C)[C@H]2NC(=O)O[C@@]21C [Compound 17] | 16 (≈ 19.3 µM) | 1 (≈ 1.2 µM) | 0.5 (≈ 0.602 µM) | 0.06 (≈ 0.0722 µM) | 0.25 (≈ 0.301 µM) | – | – | – | – | – | – | – | –
CC[C@H](C)C(=O)O[C@H]1[C@H](C)[C@@H](O[C@@H]2O[C@H](C)C[C@H](N(C)C)[C@H]2O)[C@](C)(OC(=O)NC/C=C/c2ccc(-c3ncccn3)cc2)C[C@@H](C)C(=O)[C@H](C)[C@H]2NC(=O)O[C@]2(C)[C@@H](CC)OC(=O)[C@@H]1C [Compound 15] | > 16 | 4 (≈ 4.34 µM) | 0.5 (≈ 0.542 µM) | 0.06 (≈ 0.0651 µM) | 0.5 (≈ 0.542 µM) | – | – | – | – | – | – | – | –
